The IC50 is the concentration that inhibits the measured activity by half.

Our source for the IC50 values is patent publication US20160052926A1, “NOVEL PYRIMIDINE AND PYRIDINE COMPOUNDS AND USAGE THEREOF” (HUTCHISON MEDIPHARMA LIMITED, priority 2013, published 2016).

In one experiment the test system is KG-1. The experiment is described as follows: Cellular Proliferation Assay (Cell Counting Kit-8), KG-1. It is filed as cell-based. To be noted: Homo sapiens, KG1 cells, 72 hours. The method in brief:
(§1)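 Proliferation was read as OD at 450 nm after 1 h with CCK-8, following 72 h drug exposure at 37 °C, 5% CO2. Inhibition was calculated against cells in 0.5% DMSO minus medium blank, and the 50% point reported. The compound series (10–0.004 μM, pre-addition, in 5% DMSO) was added one day after plating KG-1, SNU-16 and RT-112 at 30,000, 5,000 and 1,000 cells/well respectively.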
Background: Tetrazolium dyes change colour on reduction, which living cells bring about.

The target in a further experiment is Recombinant human FGFR2 (Homo sapiens, UniProt P21802). Kind of experiment: Transcreener Kinase Assay of FGFR2. It is filed as biochemical. To be noted: read-out: FGFR2 (FP) IC50.
In another experiment the test system is SNU-16. Kind of experiment: Cellular Proliferation Assay (Cell Counting Kit-8), SNU-16. Type of experiment: cell-based. To be noted: Homo sapiens, SNU-16 cells, 72 hours. A digest of the protocol:
as §1

The target in a further experiment is FGFR3 kinase (Homo sapiens, UniProt P22607). The experiment is described as follows: Z-Lyte Kinase Assay of FGFR3. Type of experiment: biochemical. A digest of the protocol: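 FRET peptide-cleavage format: 1 h kinase reaction at RT (25-30[…]), then 1 h protease development, then stop and dual-emission read (Ex400, Em445/520 nm). Working solutions: kinase 0.7 μg/ml, Tyr 4 peptide 4 μM, ATP 300 uM in 1.33× buffer; eight compound concentrations from 1 μM, 2% DMSO final.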

The subject of another experiment is RT-112. Kind of experiment: Cellular Proliferation Assay (Cell Counting Kit-8), RT-112. Type of experiment: cell-based. To be noted: Homo sapiens, RT-112 cells, 72 hours. The method in brief: as §1
The target in another experiment is Recombinant human FGFR1 (Homo sapiens, UniProt P11362). The experiment is described as follows: Transcreener Kinase Assay of FGFR1. It is filed as biochemical. To be noted: read-out: FGFR1 (FP) IC50.
Chain of Recombinant human FGFR1 (P11362 22-822): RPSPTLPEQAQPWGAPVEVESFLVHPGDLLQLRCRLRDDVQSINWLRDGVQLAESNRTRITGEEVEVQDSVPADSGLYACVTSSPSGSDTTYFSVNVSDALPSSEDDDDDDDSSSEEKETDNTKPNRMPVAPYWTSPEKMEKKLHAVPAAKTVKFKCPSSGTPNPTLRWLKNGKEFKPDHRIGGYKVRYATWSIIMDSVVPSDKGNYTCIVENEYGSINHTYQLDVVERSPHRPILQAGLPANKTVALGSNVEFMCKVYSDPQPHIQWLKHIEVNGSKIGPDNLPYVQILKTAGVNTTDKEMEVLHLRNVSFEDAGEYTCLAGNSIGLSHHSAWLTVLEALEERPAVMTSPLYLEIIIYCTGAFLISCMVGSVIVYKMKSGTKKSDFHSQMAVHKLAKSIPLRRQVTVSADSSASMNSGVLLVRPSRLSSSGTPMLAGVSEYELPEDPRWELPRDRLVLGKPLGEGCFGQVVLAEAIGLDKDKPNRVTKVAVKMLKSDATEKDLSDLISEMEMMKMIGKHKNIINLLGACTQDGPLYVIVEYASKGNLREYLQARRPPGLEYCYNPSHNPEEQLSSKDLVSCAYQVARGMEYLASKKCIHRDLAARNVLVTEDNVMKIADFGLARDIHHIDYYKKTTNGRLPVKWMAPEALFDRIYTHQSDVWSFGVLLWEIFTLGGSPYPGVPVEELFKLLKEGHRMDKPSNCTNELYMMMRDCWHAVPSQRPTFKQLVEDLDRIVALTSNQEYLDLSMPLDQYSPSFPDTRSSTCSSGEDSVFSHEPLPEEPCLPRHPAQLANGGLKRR

Chain of Recombinant human FGFR2 (P21802 22-821): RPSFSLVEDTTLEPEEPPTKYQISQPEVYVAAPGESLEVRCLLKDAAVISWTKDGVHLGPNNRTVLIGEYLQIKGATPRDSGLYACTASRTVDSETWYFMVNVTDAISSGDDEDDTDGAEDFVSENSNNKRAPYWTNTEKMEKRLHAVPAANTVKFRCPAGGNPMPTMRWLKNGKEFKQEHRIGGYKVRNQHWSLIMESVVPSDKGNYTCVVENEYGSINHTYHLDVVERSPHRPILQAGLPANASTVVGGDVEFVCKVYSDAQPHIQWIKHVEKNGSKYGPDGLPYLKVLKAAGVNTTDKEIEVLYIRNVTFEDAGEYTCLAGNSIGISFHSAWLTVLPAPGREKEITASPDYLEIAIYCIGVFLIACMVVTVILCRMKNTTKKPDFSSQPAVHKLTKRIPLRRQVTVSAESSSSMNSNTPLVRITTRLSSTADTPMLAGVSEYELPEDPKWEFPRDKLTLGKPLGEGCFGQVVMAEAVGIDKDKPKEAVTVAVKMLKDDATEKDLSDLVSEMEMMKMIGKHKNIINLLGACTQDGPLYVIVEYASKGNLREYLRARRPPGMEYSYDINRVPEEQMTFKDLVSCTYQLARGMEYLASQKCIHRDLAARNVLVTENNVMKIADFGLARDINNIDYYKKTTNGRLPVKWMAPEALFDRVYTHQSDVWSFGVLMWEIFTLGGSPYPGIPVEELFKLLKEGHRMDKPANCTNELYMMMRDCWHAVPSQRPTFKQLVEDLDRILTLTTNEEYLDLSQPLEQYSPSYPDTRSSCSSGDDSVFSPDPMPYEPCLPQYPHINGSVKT
Chain of FGFR3 kinase (P22607 23-806): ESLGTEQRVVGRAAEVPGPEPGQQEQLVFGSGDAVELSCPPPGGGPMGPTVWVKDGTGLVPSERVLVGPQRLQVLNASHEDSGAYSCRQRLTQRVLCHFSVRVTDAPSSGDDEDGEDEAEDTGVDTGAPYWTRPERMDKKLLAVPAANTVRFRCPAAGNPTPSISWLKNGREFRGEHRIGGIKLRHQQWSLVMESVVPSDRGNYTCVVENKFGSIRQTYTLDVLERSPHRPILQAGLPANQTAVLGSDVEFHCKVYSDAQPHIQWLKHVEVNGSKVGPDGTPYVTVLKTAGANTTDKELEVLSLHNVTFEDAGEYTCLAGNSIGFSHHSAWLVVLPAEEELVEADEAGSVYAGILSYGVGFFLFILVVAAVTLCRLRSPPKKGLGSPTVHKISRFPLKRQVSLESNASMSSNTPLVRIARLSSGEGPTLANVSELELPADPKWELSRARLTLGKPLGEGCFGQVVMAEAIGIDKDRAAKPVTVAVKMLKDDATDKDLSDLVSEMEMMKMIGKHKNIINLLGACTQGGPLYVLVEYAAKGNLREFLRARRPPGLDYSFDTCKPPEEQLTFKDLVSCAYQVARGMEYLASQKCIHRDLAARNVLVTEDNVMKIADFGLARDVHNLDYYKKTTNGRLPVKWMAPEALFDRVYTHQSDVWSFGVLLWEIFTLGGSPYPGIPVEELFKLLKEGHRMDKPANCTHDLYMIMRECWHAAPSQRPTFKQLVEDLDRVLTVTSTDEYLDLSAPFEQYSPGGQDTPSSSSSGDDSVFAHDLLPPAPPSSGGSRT

Consider `CCn1cc(Nc2ncc(CCc3cc(C(=O)NC)cc(OC)c3Cl)cn2)cn1` [Compound 115], for which the half-maximal inhibitory concentration (IC50) in the experiment with KG-1 worked out at 12 nM; at Recombinant human FGFR2, 6 nM; in the experiment with SNU-16 it was 19 nM; on FGFR3 kinase, 11 nM; with RT-112 it was 53 nM; at Recombinant human FGFR1, 14 nM.

For `CNC(=O)c1cc(CCc2cnc(Nc3cnn(C(F)F)c3)nc2)c(F)c(OC)c1` [Compound 116], the concentration for half-maximal inhibition (IC50) in the experiment with KG-1 was 20 nM; at Recombinant human FGFR2, 10 nM; with SNU-16, 45 nM; at FGFR3 kinase it was 28 nM; in the experiment on RT-112, 19 nM; at Recombinant human FGFR1, 27 nM.

With `CNC(=O)c1cc(CCc2cnc(Nc3cnn(C4COC4)c3)nc2)c(F)c(OC)c1` [Compound 117], the half-inhibitory concentration (IC50) is 31 nM in the experiment with KG-1; 5 nM at Recombinant human FGFR2; 26 nM in the experiment on SNU-16; 13 nM against FGFR3 kinase; 188 nM with RT-112; 28 nM on Recombinant human FGFR1.

For `CNC(=O)c1cc(CCc2cnc(Nc3cnn(CC(C)C)c3)nc2)c(F)c(OC)c1` [Compound 118], the IC50 is 26 nM in the experiment on KG-1; 12 nM at Recombinant human FGFR2; 29 nM in the experiment with SNU-16; 34 nM against FGFR3 kinase; 220 nM with RT-112; 23 nM on Recombinant human FGFR1.

Regarding `CNC(=O)c1cc(CCc2cnc(Nc3cnn(C4CC4)c3)nc2)c(Cl)c(OC)c1` [Compound 119], the 50% inhibitory concentration (IC50) in the experiment with KG-1 was 22 nM; at Recombinant human FGFR2 it was 6 nM; with SNU-16, 27 nM; against FGFR3 kinase, 19 nM; in the experiment on RT-112 it was 124 nM; at Recombinant human FGFR1, 11 nM.

As to `CNC(=O)c1cc(CCc2cnc(Nc3cnn(CCOC)c3)nc2)c(F)c(OC)c1` [Compound 120], the IC50 in the experiment on KG-1 is 32 nM; on Recombinant human FGFR2, 7 nM; with SNU-16 it was 31 nM; against FGFR3 kinase, 17 nM; in the experiment with RT-112, 165 nM; at Recombinant human FGFR1, 15 nM.

Turning to `CNC(=O)c1cc(CCc2cnc(Nc3cnn(C(C)C)c3)nc2)c(Cl)c(OC)c1` [Compound 121], the IC50 stood at 7 nM in the experiment on KG-1; 6 nM at Recombinant human FGFR2; 18 nM with SNU-16; 15 nM against FGFR3 kinase; 65 nM with RT-112; 9 nM at Recombinant human FGFR1.

For `CNC(=O)c1cc(CCc2cnc(Nc3cnn(C4CCCC4)c3)nc2)c(F)c(OC)c1` [Compound 122], the IC50 in the experiment on KG-1 worked out at 20 nM; on Recombinant human FGFR2 it was 6 nM; with SNU-16, 13 nM; at FGFR3 kinase it was 9 nM; in the experiment with RT-112 it was 67 nM; on Recombinant human FGFR1, 14 nM.

On to `CNC(=O)c1cc(CCc2cnc(Nc3cnn([C@@H]4CCOC4)c3)nc2)c(F)c(OC)c1` [Compound 123], for which the IC50 came to 26 nM with KG-1; 5 nM on Recombinant human FGFR2; 18 nM in the experiment on SNU-16; 13 nM on FGFR3 kinase; 135 nM in the experiment on RT-112; 9 nM at Recombinant human FGFR1.

In the case of `CNC(=O)c1cc(CCc2cnc(Nc3cnn(CCN(C)C)c3)nc2)c(F)c(OC)c1` [Compound 125], the half-maximal inhibitory concentration (IC50) in the experiment with KG-1 turned out to be 30 nM; at Recombinant human FGFR2, 19 nM; in the experiment on SNU-16, 29 nM; against FGFR3 kinase it was 20 nM; in the experiment with RT-112, 750 nM; at Recombinant human FGFR1, 28 nM.

Consider `CNC(=O)c1cc(CCc2cnc(Nc3cnn(CCCOC)c3)nc2)c(F)c(OC)c1` [Compound 126], for which the half-inhibitory concentration (IC50) in the experiment on KG-1 was found to be 45 nM; at Recombinant human FGFR2, 8 nM; with SNU-16, 18 nM; at FGFR3 kinase, 17 nM; in the experiment with RT-112, 112 nM; on Recombinant human FGFR1, 15 nM.

On to `CNC(=O)c1cc(CCc2cnc(Nc3cnn(CCOC)c3)nc2)c(Cl)c(OC)c1` [Compound 127], for which the half-maximal inhibitory concentration (IC50) stood at 22 nM with KG-1; 5 nM at Recombinant human FGFR2; 20 nM in the experiment on SNU-16; 9 nM at FGFR3 kinase; 66 nM in the experiment on RT-112; 9 nM on Recombinant human FGFR1.

For `CNC(=O)c1cc(CCc2cnc(Nc3cnn(-c4cccnc4)c3)nc2)c(F)c(OC)c1` [Compound 128], the half-inhibitory concentration (IC50) with KG-1 was 47 nM; on Recombinant human FGFR2, 10 nM; with SNU-16, 15 nM; on FGFR3 kinase, 14 nM; in the experiment on RT-112 it was 112 nM; on Recombinant human FGFR1 it was 20 nM.

Consider `CNC(=O)c1cc(CCc2cnc(Nc3ccc4c(C)n(C)nc4c3)nc2)c(F)c(OC)c1` [Compound 130], for which the IC50 came out at 28 nM in the experiment on KG-1; 5 nM at Recombinant human FGFR2; 32 nM in the experiment with SNU-16; 10 nM at FGFR3 kinase; 48 nM in the experiment with RT-112; 8 nM at Recombinant human FGFR1.

On to `CNC(=O)c1cc(CCc2cnc(Nc3cnn(CC4(C)COC4)c3)nc2)c(F)c(OC)c1` [Compound 131], for which the half-inhibitory concentration (IC50) in the experiment on KG-1 stood at 37 nM; at Recombinant human FGFR2, 8 nM; in the experiment on SNU-16 it was 13 nM; against FGFR3 kinase it was 11 nM; with RT-112, 131 nM; at Recombinant human FGFR1 it was 19 nM.

Consider `CNC(=O)c1cc(CCc2cnc(Nc3cnn(C4CCOCC4)c3)nc2)c(F)c(OC)c1` [Compound 132], for which the IC50 came to 20 nM with KG-1; 6 nM at Recombinant human FGFR2; 10 nM with SNU-16; 6 nM on FGFR3 kinase; 59 nM with RT-112; 12 nM at Recombinant human FGFR1.

Consider `CNC(=O)c1cc(CCc2cnc(Nc3cnn(CCCN(C)C)c3)nc2)c(F)c(OC)c1` [Compound 133], for which the IC50 came to 345 nM in the experiment on KG-1; 8 nM on Recombinant human FGFR2; 51 nM in the experiment with SNU-16; 16 nM on FGFR3 kinase; 713 nM in the experiment on RT-112; 20 nM on Recombinant human FGFR1.

In the case of `CNC(=O)c1cc(CCc2cnc(Nc3cnn(-c4ccc(C)nc4)c3)nc2)c(F)c(OC)c1` [Compound 134], the IC50 with KG-1 was found to be 33 nM; at Recombinant human FGFR2 it was 8 nM; with SNU-16, 34 nM; at FGFR3 kinase, 24 nM; in the experiment with RT-112, 84 nM; on Recombinant human FGFR1, 71 nM.

With `CNC(=O)c1cc(CCc2cnc(Nc3cnn(CCN4CCCC4)c3)nc2)c(F)c(OC)c1` [Compound 135], the 50% inhibitory concentration (IC50) in the experiment with KG-1 was 368 nM; at Recombinant human FGFR2, 19 nM; in the experiment with SNU-16, 46 nM; on FGFR3 kinase it was 22 nM; with RT-112, 230 nM; on Recombinant human FGFR1 it was 22 nM.

Regarding `CCN(CC)CCn1cc(Nc2ncc(CCc3cc(C(=O)NC)cc(OC)c3F)cn2)cn1` [Compound 136], the IC50 in the experiment on KG-1 is 92 nM; on Recombinant human FGFR2 it was 11 nM; with SNU-16 it was 25 nM; at FGFR3 kinase, 18 nM; in the experiment on RT-112, 37 nM; on Recombinant human FGFR1, 23 nM.

`CNC(=O)c1cc(CCc2cnc(Nc3cnn(CC4CCN(C)CC4)c3)nc2)c(F)c(OC)c1` [Compound 137]: the IC50 amounted to 319 nM in the experiment with KG-1; 6 nM at Recombinant human FGFR2; 29 nM in the experiment on SNU-16; 7 nM against FGFR3 kinase; 86 nM with RT-112; 12 nM at Recombinant human FGFR1.

In the case of `CNC(=O)c1cc(CCc2cnc(Nc3cnn(CCCN4CCCC4)c3)nc2)c(F)c(OC)c1` [Compound 138], the IC50 in the experiment on KG-1 was 617 nM; on Recombinant human FGFR2 it was 7 nM; with SNU-16, 32 nM; against FGFR3 kinase, 8 nM; with RT-112, 202 nM; on Recombinant human FGFR1, 9 nM.

In the case of `CNC(=O)c1cc(CCc2cnc(Nc3cnn(CCN4CCOCC4)c3)nc2)c(F)c(OC)c1` [Compound 139], the IC50 with KG-1 was determined as 64 nM; at Recombinant human FGFR2 it was 6 nM; in the experiment with SNU-16, 22 nM; on FGFR3 kinase, 8 nM; in the experiment on RT-112, 146 nM; on Recombinant human FGFR1 it was 12 nM.

`CNC(=O)c1cc(CCc2cnc(Nc3cnn(Cc4ccccn4)c3)nc2)c(F)c(OC)c1` [Compound 142]: the IC50 in the experiment on KG-1 was 60 nM; at Recombinant human FGFR2 it was 11 nM; with SNU-16, 28 nM; against FGFR3 kinase, 28 nM; in the experiment on RT-112 it was 208 nM; at Recombinant human FGFR1, 20 nM.

`CNC(=O)c1cc(CCc2cnc(Nc3cnn(CC(=O)N4CCCC4)c3)nc2)c(F)c(OC)c1` [Compound 143]: the IC50 in the experiment with KG-1 turned out to be 803 nM; at Recombinant human FGFR2, 7 nM; in the experiment with SNU-16, 100 nM; against FGFR3 kinase it was 203 nM; in the experiment with RT-112 it was 991 nM; on Recombinant human FGFR1, 41 nM.

Consider `CNC(=O)c1cc(CCc2cnc(Nc3ccc(N4CCCCC4=O)cc3)nc2)c(F)c(OC)c1` [Compound 145, 4-fluoro-3-methoxy-N-methyl-5-(2-(2-(4-(2-oxopiperidin-1-yl)phenylamino)pyrimidin-5-yl)ethyl)benzamide], for which the half-inhibitory concentration (IC50) with KG-1 is 154 nM; on Recombinant human FGFR2, 13 nM; with SNU-16, 52 nM; at FGFR3 kinase, 32 nM; in the experiment on RT-112 it was 260 nM; on Recombinant human FGFR1, 37 nM.

In the case of `CNC(=O)c1cc(CCc2cnc(Nc3cnn(C)c3)nc2)c(Cl)c(OC)c1` [Compound 146], the IC50 came out at 9 nM with KG-1; 10 nM on Recombinant human FGFR2; 19 nM in the experiment with SNU-16; 14 nM at FGFR3 kinase; 142 nM with RT-112; 12 nM on Recombinant human FGFR1.
